From patent US20010048942A1, “Dutasteride to prevent and treat atherosclerosis” (priority 2000, published 2001)

Test system: patients of the practice
Assay: second study: questionnaire on cardiac events in patients of the practice treated with finasteride vs control group
Type: in vivo, human
Settings: 4 events over 242 patient-years; control 3.5%/yr.
Experimental: Finasteride was being administered at a dosage of a single oral 5 mg tablet a day. This is the same tablet used in treatment of BPH as disclosed in U.S. Pat. No. 5,175,155 and such dosage applies in the present invention. However, use of a 2 mg or 10 mg oral tablet is contemplated.
Two studies were undertaken to determine whether finasteride was, in fact, effective in lessening the incidence of heart disease and other complications of atherosclerosis.
In the second study patients of the practice were given a questionnaire. Various patients had been treated with finasteride for varying lengths of time. Only those on the drug for at least one year were considered. The average time on finasteride was 3 years. The number of cardiac events occurring in the patients taking finasteride was only 4 events over 242 patient-years. (1.6%/yr.) In the control group 26 events occurred in the 3 years prior over 732 patient-years. (3.5%/yr.)
The […] observed in cardiac events is believed to be significant. (90% Cl equal to 1.4% to 3.7%)

## CC(C)(C)NC(=O)[C@H]1CC[C@H]2[C@@H]3CC[C@H]4NC(=O)C=C[C@]4(C)[C@H]3CC[C@]12C [finasteride, 4-azaandrost-1-ene-17-carboxamide, N-(1,1-dimethylethyl)-3-oxo-(5a 17B)-]
  cardiac events per patient-year: 1.6 %/yr.
